Assay results from patent US20150346214A1, “DETECTION OF MEMBRANE PROTEINS” (priority 2012, published 2015).
“Also recorded” adds a separate entry of the source.

Biological target: T1, mechanosensitive channel of large conductance (MscL) (Mycobacterium tuberculosis, UniProt P9WJN5)
T1 sequence (P9WJN5 1-151): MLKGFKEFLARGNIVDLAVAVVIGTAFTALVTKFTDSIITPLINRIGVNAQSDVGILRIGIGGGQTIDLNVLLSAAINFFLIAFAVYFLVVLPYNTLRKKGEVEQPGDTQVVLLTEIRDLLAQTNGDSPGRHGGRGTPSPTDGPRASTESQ
Test: Gas-phase (collision-induced) unfolding IM-MS: stabilisation of MscL by bound phospholipid
Assay type: binding
Details: +12 charge state, versus apo form

CCCCCCCC/C=C\CCCCCCCC(=O)OC[C@H](COP(=O)(O)O[C@H]1C(O)C(O)C(O)[C@@H](OP(=O)(O)O)C1O)OC(=O)CCCCCCC/C=C\CCCCCCCC (stereo partly shown) [PI]
average stabilisation of MscL by bound phospholipid (resistance to gas-phase unfolding): large increase in stability when binding multiple lipids, greater than all other phospholipids investigated; also recorded: Major cumulative effects on stability
